The values that follow come from patent US20230080252A1, “ANTICANCER ADJUVANT AND PHARMACEUTICAL COMPOSITION FOR TREATING ANTICANCER-AGENT-RESISTANT CANCER, AND KIT COMPRISING SAME” (DONG-A UNIVERSITY RESEARCH FOUNDATION FOR INDUSTRY-ACADEMY …, priority 2020, published 2023).

Data set [1] relates to p-CHK1 (ATR-CHK1 pathway). Briefly: CHK1 phosphorylation (immunoblot / immunostaining) after UV or HU. In kind it is cell-based, human. The note with it: inhibitor added after UV irradiation, fixed after 2 hours, anti-p-CHK1 immunostaining. The text has this: FIG. 1D is a quantification of the percentage of p-CHK1-positive cells from UV-treated data of FIG. 1C. […] In each experiment, >100 cells were randomly chosen to determine the percentage of p-CHK1-positive cells.
The two DNA damage response kinases ATR and ATM play key roles in the protection of genomic integrity from genotoxic stress by sensing a single-strand break and DSB (Double strand break), respectively. To identify the functions of TTP in the DNA damage response, we first analyzed the phosphorylation levels of CHK1 (p-CHK1) and CHK2 (p-CHK2) as readouts of ATR and ATM activity, respectively.
Then, we treated cells with HU, another CHK1 phosphorylation-triggering agent which depletes the deoxynucleoside triphosphate pool, thus inducing the RSR (Replication Stress Response).
A general note: A western blot detects proteins with antibodies after separation by electrophoresis.

Data set [2] concerns A549 (human lung carcinoma) cells. The data set can be described thus: DNA fiber analysis of replication forks. The note with it: unperturbed A549 cells; IdU and CldU 20 min each; control 0.36 μm/min. In kind it is cell-based. The method, then:
The ratios of CldU to IdU were calculated from active replication forks. […] Single-strand DNA (ssDNA; blue) was labelled with ssDNA-specific antibodies. Percentages of stalled forks were calculated by dividing the number of red-only tracts (stalled forks) by the total number of red-only plus red-green tracts (stalled and restarted forks, respectively). Analyses were performed on a minimum of 200 individual DNA fibers. […] The recovery of S phase progression is presented as a percentage of EdU positive cells at 6 h after the release from HU treatment. In each experiment, >100 cells were randomly chosen to determine the percentage of EdU-positive cells. […] The ratio of CldU to IdU in terms of length was calculated from active replication forks (red-green). […]
(1) ATR-CHK1 pathway accounts for the central replication stress responses and once activated it helps the cell to survive and faithfully complete DNA replication under stress. Having shown that TTP is found to be implicated in the ATR-CHK1 activation, as in Example 1 above, we decided to examine the effect of TTP on the replication fork stability using DNA fiber analysis, the clearest read-out of replication stress which relies on the incorporation of nucleotide analogues. […]
(3) We next examined the involvement of TTP in stalled fork protection. […] We then analyzed the relative shortening of CldU fiber as indicative of fork degradation. […]

As for `CNCc1ccc(-c2cc(-c3nc(-c4ccc(S(=O)(=O)C(C)C)cc4)cnc3N)on2)cc1` [VE-822], in data set [1], the “residual p-CHK1 signal in TTP-deficient cells” value is recorded as “vanished”.

As for “siClaspin: siRNA (SEQ ID NO: 20) introduced into cells to make Claspin-deficient cells (AACCUUGCUUAGAGCUGAGUCUUCA; listed as RNA, chemistry not given here)”, the average fork velocity in data set [2] is on record as 0.22 μm/min.
